Reference: the NIST ThermoML archive (doi:10.1007/s10765-010-0902-x)

What was measured:
[1] = xn = mol fraction of the nth substance listed; conditions: 298.15 K, 101 kPa, Liquid; for viscosity: Capillary tube (Ostwald / Ubbelohde) method
[2] = refractive index (Na D-line) (dimensionless); xn = mol fraction of the nth substance listed; conditions: 298.15 K, 101 kPa, Liquid, Standard Abbe refractometry
[3] = 298.15 K; 101 kPa; Liquid
[4] = refractive index (Na D-line) (dimensionless); conditions: 298.15 K; 101.33 kPa; Liquid; Standard Abbe refractometry

CCCCCCCl [1-chlorohexane] + CCCCOC(C)=O
Conditions	mass density, [1] [kg/m3]	refractive index, [2]	viscosity, [1] [mPa·s]
x2 = 0	873.39	1.4171	–
x2 = 0.0568	873.06	1.4159	0.662
x2 = 0.1099	872.97	1.4148	0.659
x2 = 0.1638	872.88	1.4137	0.657
x2 = 0.2188	872.81	1.4125	0.655
x2 = 0.3237	872.8	1.4102	0.652
x2 = 0.3745	872.83	1.4091	0.651
x2 = 0.4271	872.87	1.4078	0.65
x2 = 0.4773	872.98	1.4066	0.649
x2 = 0.5286	873.11	1.4053	0.648
x2 = 0.6265	873.53	1.4028	0.646
x2 = 0.6753	873.78	1.4015	0.645
x2 = 0.7232	874.04	1.4001	0.645
x2 = 0.8171	874.66	1.3973	0.645
x2 = 0.8631	875.01	1.3959	0.645

CCCCOC(C)=O [butyl ethanoate] + CCCCCl
x1 = 1
Conditions	mass density [kg/m3]	refractive index
[1]	876.28	–
[2]	–	1.3918

CCCCCl [1-chlorobutane] + CCCCOC(C)=O
Conditions	mass density, [1] [kg/m3]	refractive index, [2]	viscosity, [1] [mPa·s]
x2 = 0	880.87	1.3996	–
x2 = 0.0503	880.41	1.3989	0.42
x2 = 0.1111	879.89	1.3981	0.432
x2 = 0.1527	879.56	1.3976	0.441
x2 = 0.2003	879.19	1.3971	0.451
x2 = 0.2996	878.52	1.3961	0.473
x2 = 0.3493	878.23	1.3956	0.484
x2 = 0.3978	877.97	1.3952	0.495
x2 = 0.4508	877.72	1.3947	0.507
x2 = 0.4997	877.51	1.3943	0.519
x2 = 0.55	877.31	1.3939	0.531
x2 = 0.5985	877.15	1.3936	0.543
x2 = 0.6501	876.99	1.3933	0.555
x2 = 0.7002	876.84	1.393	0.568
x2 = 0.7493	876.72	1.3928	0.58
x2 = 0.8042	876.6	1.3925	0.594
x2 = 0.85	876.51	1.3923	0.606
x2 = 0.8991	876.43	1.3921	0.619

CCCCOC(C)=O [butyl ethanoate] + CCCCCCCCl
x1 = 1
Conditions	mass density [kg/m3]	refractive index
[1]	876.28	–
[2]	–	1.3918

CCCCCCl [1-chloropentane]
Conditions	mass density [kg/m3]	refractive index
[3]	876.93	–
[4]	–	1.4097

CCCCOC(C)=O [butyl ethanoate] + CCCCCCCCCl
x1 = 1
Conditions	mass density [kg/m3]	refractive index
[1]	876.28	–
[2]	–	1.3918

CCCCOC(C)=O [butyl ethanoate] + CCCCCCl
x1 = 1
Conditions	mass density [kg/m3]	refractive index
[1]	876.28	–
[2]	–	1.3918
